{
  "source": "patent US20120225123A1",
  "about": "“Use of Synergistic Combinations of an Avermectin and an Antineoplastic Compounds for the Treatment of Hematological Malignancies” (UNIVERSITY HEALTH NETWORK, priority 2009, published 2012)",
  "key": {"[1]": {"tested_on": "panel of 5 leukemia cell lines", "experiment": "Cell growth and viability by MTS assay in a panel of leukemia cell lines", "type": "cell-based", "conditions": "72 hours, read-out: EC50, decreased viability", "method": "(§1) Cell growth and viability was assessed by the MTS assay (Promega, Madison, Wis.) according to the manufacturer's instructions and as previously described.^12 Cell death was measured by Annexin V-fluoroscein isothiocyanate (FITC) and Propidium Iodide (PI; Biovision Research Products, Mountain View, Calif.) staining and flow cytometry according to the manufacturer's instructions and as previously described.^13 To identify CD34+ cells, a normal PBSC sample was co-stained with PE-anti-CD34+ (Beckman Coulter, Marseille France), and APC-anti-CD45 (Becton Dickenson, San Jose Calif.).\nHaving identified IVM in the chemical screens, the effects of IVM on cell growth and viability was tested in a panel of leukemia, cell lines. The effects of ivermectin on cell growth and viability in a panel of 5 leukemia cell lines were tested. Cells were treated with increasing concentrations of ivermectin and 72 hours after incubation, cell growth and viability were assessed by the MTS assay. Ivermectin decreased the viability of the tested leukemia cell lines with an EC50 of approximately 5 μM (FIG. 1B). The loss of viability was detected at 24 hours after treatment and increased in a time dependent manner. Cell death and apoptosis were confirmed by Annexin V and PI staining (FIG. 1C). […] (FIG. 1F)."}, "[2]": {"tested_on": "OCI-AML2 subcutaneous xenografts", "experiment": "OCI-AML2 xenograft, intraperitoneal ivermectin: Tunel staining and STAT1 Q-RT-PCR", "type": "in vivo, mouse", "method": "In order to measure gene expression changes in vivo, OCI-AML2 cells (2.5×10^5) were injected subcutaneously into the flanks of sub-lethally irradiated NOD/SCID mice. Once tumors were established, mice were treated with ivermectin (7 mg/kg) or vehicle control intraperitoneally for 5 days. After treatment, mice were sacrificed, and tumors harvested. mRNA was extracted and changes in STAT expression were measured by quantitative RT-PCR (QRT-PCR). Evidence of apoptosis was measured by Tunel staining and immunohistochemistry (Pathology Research Program, University Health Network, Toronto, Canada).\nChanges in ROS production are indicative of a biological response to ivermectin, but are very difficult to measure in the context of a clinical trial. Therefore, to identify alterations in gene expression that are a result of ROS production and could be used as biomarkers in the context of a clinical trial, gene expression profiling analysis (using Affymetrix HG U133 Plus 2.0 arrays) RNA derived from OCI-AML2 cells treated with ivermectin for 30 hr and 40 hr was undertaken. One hundred and fifty genes were deregulated >4-fold at both time points (33 under-expressed; 117 over-expressed) compared to control. […] Changes in STAT1 expression in tumors from a leukemia xenograft model were also evaluated. […] After treatment, tumors were harvested, mRNA extracted, and STAT1 expression measured by Q-RT PCR."}, "[3]": {"tested_on": "DU145 prostate cancer cells", "experiment": "Cell death by Annexin V and PI staining in DU145 cells", "type": "cell-based, human", "conditions": "24 hours", "method": "as §1"}, "[4]": {"tested_on": "DU145 cells", "experiment": "Intracellular chloride (SPQ) and cell size (forward light scatter), DU145", "type": "cell-based, human", "conditions": "10 μM IVM, 2 hours", "method": "Intracellular chloride concentration was measured using a fluorescent indicator for chloride, SPQ as previously described.^16 Upon binding halide ions like chloride, SPQ is quenched resulting in a decrease in fluorescence without a shift in wavelength. […] After 15 minutes of incubation with SPQ, cells were diluted 15:1 in HBSS and centrifuged. The supernatant was removed, cells were resuspended in 200 μl of fresh HBSS and incubated for 15 minutes in 37° C. to allow recovery from the hypotonic shock. Cells were then stained with propidium iodide and SPQ fluorescence in the PI negative cells was determined using an LSR-II flow cytometer (Beckton Dickonson, San Jose, Calif.) (excitation 351 nm, emission 485 nm). In parallel, changes in cell size were determined by measuring forward light scatter by flow cytometry. Results were analyzed with FlowJo version 8.8 (TreeStar, Ashland, Oreg.)."}, "[5]": {"tested_on": "U937 and TEX leukemia cells as well as primary AML cells", "experiment": "Plasma membrane potential, DiBAC4(3) staining, sensitive cells", "type": "cell-based, human", "conditions": "after ivermectin treatment", "method": "(§2) Plasma membrane potential was measured as previously described.^18 Briefly, cells treated with IVM or buffer control in RPM1, chloride replete medium (140 mM sodium chloride, 5 mM potassium chloride, 1 mM magnesium sulfate, 1.8 mM calcium acetate, 10 mM glucose, 10 mM HEPES and 0.1% (wt/v) BSA), or chloride free media where equimolar gluconate salts of sodium and potassium replaced the sodium chloride in the chloride replete medium. After incubation, cells were stained with DiBAC4(3) (final concentration 30 nM) and fluorescence determined by flow cytometry (BD FACS Canto, Becton Dickinson, San Jose, Calif.) (excitation=488 nm, emission=516 nm) Analysis was conducted using FACSDiva Software (BD Biosciences). Calibration curves were prepared using phosphate buffers with varying potassium ion concentrations as previously described.^18\n(§3) In nematodes, increases in intracellular chloride after IVM treatment cause membrane hyperpolarization. Therefore, the effects of IVM on plasma and mitochondrial membrane polarization was evaluated in leukemia cells. […] At increasing times after incubation, plasma membrane potential was measured by staining cells with DiBAC4(3) and flow cytometric analysis."}, "[6]": {"tested_on": "DU145 and PPC-1 cells as well as primary normal hematopoietic cells", "experiment": "Plasma membrane potential, DiBAC4(3) staining, resistant cells", "type": "cell-based, human", "conditions": "up to 6 μM for up to 24 hours", "method": "as §2, §3"}, "[7]": {"tested_on": "OCI-AML2 cells", "experiment": "Reactive oxygen species, Carboxy-H2DCFDA staining, OCI-AML2", "type": "cell-based, human", "conditions": "increasing concentrations, flow cytometry", "method": "Data were analyzed with FlowJo version 8.8 (TreeStar, Ashland, Oreg.)."}, "[8]": {"tested_on": "U937 and TEX leukemia cells; primary AML cells", "experiment": "Reactive oxygen species, Carboxy-H2DCFDA staining, sensitive cells", "type": "cell-based, human"}, "[9]": {"tested_on": "DU145 and PPC-1 cells; normal hematopoietic cells", "experiment": "Reactive oxygen species, Carboxy-H2DCFDA staining, resistant cells", "type": "cell-based, human"}, "[10]": {"tested_on": "monkeys", "conditions": "oral; cited from earlier work"}},
  "data": [
    {"substance": "ivermectin", "values": [
      {"measurement": "EC50", "setting": "[1]", "value": "~5", "unit": "µM"},
      {"measurement": "apoptosis in the subcutaneous tumor, Tunel staining", "setting": "[2]; 7 mg/kg intraperitoneally for 5 days", "value": "increased apoptosis"},
      {"measurement": "STAT1 mRNA in tumors vs vehicle control", "setting": "[2]; ivermectin for 5 days, Q-RT PCR", "value": "increased in two of three tested tumors"},
      {"measurement": "sensitivity to IVM induced cell death", "setting": "[3]", "value": "more resistant to IVM induced cell death"},
      {"measurement": "chloride influx", "setting": "[4]", "value": "chloride influx was not observed"},
      {"measurement": "plasma membrane potential", "setting": "[5]", "value": "demonstrated plasma membrane hyperpolarization"},
      {"measurement": "plasma membrane potential", "setting": "[6]", "value": "did not show changes in their plasma membrane potential"},
      {"measurement": "ROS production", "setting": "[7]", "value": "increased ROS production"},
      {"measurement": "ROS generation", "setting": "[8]; U937 and TEX cells, 2 hours after treatment", "value": "demonstrated increased ROS generation"},
      {"measurement": "ROS generation", "setting": "[8]; primary AML cells", "value": "demonstrated increased ROS generation"},
      {"measurement": "ROS generation", "setting": "[9]; DU145 and PPC-1 cells", "value": "did not show changes in ROS generation"},
      {"measurement": "ROS generation", "setting": "[9]; normal hematopoietic cells", "value": "not normal hematopoietic cells"},
      {"measurement": "LD50", "setting": "[10]", "value": "above 24 mg/kg"}
    ]}
  ]
}
